Results published in patent publication US20260337156A1, “SOLUBILIZING COMPOUNDS” (Vivesto AB, priority 2022, published 2026).

Assay: drug loading capacity (ratio of amount API:(API+excipient))
Assay type: physicochemical
Method: The solution was evaporated to dryness in a rotary evaporator. Final drying was performed in a desiccator to remove residual solvent. Hydration of the dried film was performed by adding water for injection (1.2 mL). […] Drug loading capacity is defined as the ratio of amount API:(API+excipient).
20 mg of example 1 was dispensed into a 25 mL round bottom flask and dissolved in methanol (3 mL). 800 μL of a stock solution of docetaxel in methanol (5 mg/mL) was added. The solution was evaporated to dryness in a rotary evaporator. Final drying was performed in a desiccator to remove residual solvent. Hydration of the dried film was performed by adding water for injection (1.0 mL) to a concentration of 4 mg/mL of docetaxel. The 4 mg/mL concentration was further diluted with 0.9% sodium chloride according to the table below.
(§1) 11 mg of example 1 was dispensed into a 25 mL round bottom flask and dissolved in methanol (2 mL). 740 μL of a stock solution of docetaxel in methanol (4.96 mg/mL) was added. The solution was evaporated to dryness in a rotary evaporator. Final drying was performed in a desiccator to remove residual solvent.
as §1, with “4.5” for “11”, “compound” for “example”, “1500” for “740”, “cabazitaxel” for “docetaxel”, “(1.00” for “(4.96”
as §1, with “4.5” for “11”, “compound” for “example”, “1500” for “740”, “cyclosporin” for “docetaxel”, “(1.00” for “(4.96”
4.0 mg of compound 2 was dispensed into a 25 mL round bottom flask and dissolved in methanol (3 mL). 250 μL of a stock solution of docetaxel in methanol (5 mg/mL) was added. The solution was evaporated to dryness in a rotary evaporator. Final drying was performed in a desiccator to remove residual solvent. Hydration of the dried film was performed by adding water for injection (1.25 mL). […]
as §1, with “4.5” for “11”, “compound 3” for “example 1”, “(3” for “(2”, “305” for “740”
as §1, with “4.5” for “11”, “compound 3” for “example 1”, “(3” for “(2”, “[…]” for “740”

[1] = docetaxel, ratio 3:1, docetaxel conc. 1 mg/mL

Compound	Drug loading capacity (cabazitaxel, ratio 3:1, cabazitaxel conc. 0.25 mg/mL)	Drug loading capacity (cabazitaxel, ratio 3:1, cabazitaxel conc. 0.5 mg/mL)	Drug loading capacity (cabazitaxel, ratio 3:1, cabazitaxel conc. 1 mg/mL)	Drug loading capacity (cyclosporin, ratio 3:1, cyclosporin conc. 0.25 mg/mL)	Drug loading capacity (cyclosporin, ratio 3:1, cyclosporin conc. 0.5 mg/mL)	Drug loading capacity (cyclosporin, ratio 3:1, cyclosporin conc. 1 mg/mL)	Drug loading capacity (docetaxel 1.2 mg + compound 3.8 mg)	Drug loading capacity [1]	Drug loading capacity (docetaxel, ratio 5:1, docetaxel conc. 1 mg/mL)	Drug loading capacity (docetaxel, ratio 2:1, docetaxel conc. 0.25 mg/mL)	Drug loading capacity (docetaxel, ratio 2:1, docetaxel conc. 0.5 mg/mL)	Drug loading capacity (docetaxel, ratio 2:1, docetaxel conc. 1 mg/mL)	Drug loading capacity (docetaxel, ratio 3:1, docetaxel conc. 0.25 mg/mL)	Drug loading capacity (docetaxel, ratio 3:1, docetaxel conc. 0.5 mg/mL)
COc1cc(C)c(/C=C/C(C)=C/C=C/C(C)=C/C(=O)N(CCS(=O)(=O)[O-])C2CCCCC2)c(C)c1C.[Na+] [Compound 1]	25%	25%	25%	25%	25%	25%	24%	25%	17%					
COc1cc(C)c(/C=C/C(C)=C/C=C/C(C)=C/C(=O)N(C)CCS(=O)(=O)[O-])c(C)c1C.[Na+] [Compound 3]								25%		25%	25%	25%	25%	25%
